Measured values from US9695219B2, “Polypeptide having antibacterial activity and angiogenesis-inducing activity and wound-healing drug containing said polypeptide” (priority 2009, dated 2017).
Converted amounts (≈) assume the structure as drawn. Where no end group is shown, it is not given here.

Tests used:
[1] = test system: Alternaria alternata; assay type: cell-based; details: 37° C. for 20 hours; tested twice, first/second value where not matched
Description: (§1) Further, with respect to not only the above-described strains but also various other strains, the “minimum inhibitory concentration (MIC)” was measured as follows. MIC is the lowest concentration of an agent that may inhibit the growth of a bacterium. MIC is used as a parameter for the efficacy of an antibacterial agent, for the strength of bacterial sensitivity, or the like. The bacteria can grow (proliferate) when the concentration is not higher than MIC, and cannot grow when the concentration is higher than MIC. Its measurement is carried out according to a method defined as a standard method by Japanese Society of Chemotherapy or CLINICAL AND LABORATORY […] (CLSI), but, in this Example, its measurement was carried out by a broth microdilution method in accordance with “M100-S17/M7-A7” (Performance Standards for Antimicrobial Susceptibility Testing; Seventeenth Informational Supplement, Vol. 27 No. 1) published by CLSI on January, 2007. That is, sensitivity test of agents was carried out using a microtiter plate or test tubes.
(§2) The bacteria were cultured in liquid media for 4 to 6 hours, and thereafter absorbances at A600 were measured. Bacterial suspensions were diluted with Mueller-Hinton broth (MHB) according to McFarland #0.5. Each strain was added so as to attain about 10^5 CFU/ml (final concentration). Each peptide was prepared to an optional concentration, and the solutions were serially diluted from the concentration. The polypeptide at each concentration stage was added to a microplate or test tubes, and the bacterial suspension was added thereto. Chloramphenicol, amphotericin B, ciprofloxacin, meropenem (MEPM), ciprofloxacin (CPFX), tobramycin (TOB) and oxacillin (OX) were used as positive controls. The plate was incubated at 37° C. for 20 hours, and the lowest concentration where bacterial growth was inhibited was regarded as the minimum inhibitory concentration.

[2] = test system: Candida krusei; assay type: cell-based; details: 37° C. for 20 hours; tested twice, first/second value where not matched
Description: as §1, §2

[3] = test system: Fusarium solani; assay type: cell-based; details: 37° C. for 20 hours; tested twice, first/second value where not matched
Description: as §1, §2

[4] = test system: Penicillium glabrum (Penicillium frequentans); assay type: cell-based; details: 37° C. for 20 hours; tested twice, first/second value where not matched
Description: as §1, §2

[5] = test system: Trichophyton mentagrophytes; assay type: cell-based; details: 37° C. for 20 hours; tested twice, first/second value where not matched
Description: as §1, §2

[6] = test system: Trichophyton rubrum; assay type: cell-based; details: 37° C. for 20 hours; tested twice, first/second value where not matched
Description: as §1, §2

[7] = test system: Bacillus subtilis; test: microbe, parasite or virus in culture; assay type: cell-based; details: 37° C. for 20 hours, tested twice, first/second value where not matched
Description: as §1, §2

[8] = test system: Bacteroides fragilis; test: microbe, parasite or virus in culture; assay type: cell-based; details: Bacteroides fragilis; 37° C. for 20 hours; tested twice, first/second value where not matched
Description: as §1, §2

[9] = test system: Clostridium ramosum; test: microbe, parasite or virus in culture; assay type: cell-based; details: 37° C. for 20 hours, tested twice, first/second value where not matched
Description: as §1, §2

[10] = test system: Enterococcus faecalis; test: microbe, parasite or virus in culture; assay type: cell-based; details: 37° C. for 20 hours, tested twice, first/second value where not matched
Description: as §1, §2

[11] = test system: Fusobacterium nucleatum; test: microbe, parasite or virus in culture; assay type: cell-based; details: 37° C. for 20 hours, tested twice, first/second value where not matched
Description: as §1, §2

[12] = test system: Micrococcus luteus; test: microbe, parasite or virus in culture; assay type: cell-based; details: 37° C. for 20 hours, tested twice, first/second value where not matched
Description: as §1, §2

[13] = test system: Salmonella enteritidis; test: microbe, parasite or virus in culture; assay type: cell-based; details: Salmonella enterica, 37° C. for 20 hours, tested twice, first/second value where not matched
Description: as §1, §2

[14] = test system: Salmonella typhimurium; test: microbe, parasite or virus in culture; assay type: cell-based; details: Salmonella enterica, TYPHIMURIUM; 37° C. for 20 hours; tested twice, first/second value where not matched
Description: as §1, §2

[15] = test system: Streptococcus pyogenes; test: microbe, parasite or virus in culture; assay type: cell-based; details: 37° C. for 20 hours, tested twice, first/second value where not matched
Description: as §1, §2

[16] = test system: Acinetobacter baumanni; assay type: cell-based; details: 37° C. for 20 hours; tested twice, first/second value where not matched
Description: as §1, §2

[17] = test system: Pseudomonas aeruginosa; assay type: cell-based; details: 37° C. for 20 hours; tested twice, first/second value where not matched
Description: as §1, §2

[18] = test system: Pseudomonas aeruginosa (clinical strain 1); test: microbe, parasite or virus in culture; assay type: cell-based; details: 37° C. for 20 hours; tested twice, first/second value where not matched
[19] = test system: Pseudomonas aeruginosa (clinical strain 6); test: MIC measurement, broth microdilution; assay type: cell-based; details: 37° C. for 20 hours; tested twice, first/second value where not matched
[20] = test system: Pseudomonas aeruginosa (clinical strain 8); test: MIC measurement, broth microdilution; assay type: cell-based; details: 37° C. for 20 hours; tested twice, first/second value where not matched
[21] = test system: Pseudomonas aeruginosa (clinical strain 9); test: MIC measurement, broth microdilution; assay type: cell-based; details: 37° C. for 20 hours; tested twice, first/second value where not matched
[22] = test system: Pseudomonas aeruginosa (clinical strain 12); test: MIC measurement, broth microdilution; assay type: cell-based; details: 37° C. for 20 hours; tested twice, first/second value where not matched
[23] = test system: Escherichia coli; test: MIC measurement, broth microdilution; assay type: cell-based; details: 37° C. for 20 hours; tested twice, first/second value where not matched
Description: as §1, §2

[24] = test system: Staphylococcus epidermidis; test: MIC measurement, broth microdilution; assay type: cell-based; details: 37° C. for 20 hours; tested twice, first/second value where not matched
Description: as §1, §2

[25] = test system: MSSA (clinical strain 1); test: microbe, parasite or virus in culture; assay type: cell-based, Staphylococcus aureus; details: 37° C. for 20 hours; tested twice, first/second value where not matched
Description: as §1, §2

## C[C@@H]1[C@H](O)[C@@H](C)/C=C/C=C/C=C/C=C/C=C/C=C/C=C/[C@H](O[C@@H]2O[C@H](C)[C@@H](O)[C@H](N)[C@@H]2O)C[C@@H]2O[C@](O)(C[C@@H](O)C[C@@H](O)[C@H](O)CC[C@@H](O)C[C@@H](O)CC(=O)O[C@H]1C)C[C@H](O)[C@H]2C(=O)O [Amphotericin B, amphotericin B]
[1]
  MIC, Alternaria alternata: 1 µg/mL (≈ 1.08 µM)
[2]
  MIC, Candida krusei: 2 µg/mL (≈ 2.16 µM)
[3]
  MIC, Fusarium solani: 1 µg/mL (≈ 1.08 µM)
[4]
  MIC, Penicillium glabrum (Penicillium frequentans): 0.125 µg/mL (≈ 0.135 µM)
[5]
  MIC, Trichophyton mentagrophytes: 0.125 µg/mL (≈ 0.135 µM)
[6]
  MIC, Trichophyton rubrum: 0.25 µg/mL (≈ 0.271 µM)

## O=C(N[C@H](CO)[C@H](O)c1ccc([N+](=O)[O-])cc1)C(Cl)Cl [Chloramphenicol]
[7]
  MIC: 4 µg/mL (≈ 12.4 µM)
[8]
  MIC: 1 µg/mL (≈ 3.09 µM)
[9]; Thomasclavelia ramosa
  MIC: 4 µg/mL (≈ 12.4 µM)
[10]
  MIC: 4 µg/mL (≈ 12.4 µM)
[11]; Fusobacterium nucleatum
  MIC: 0.25 µg/mL (≈ 0.774 µM)
[12]
  MIC: 1 µg/mL (≈ 3.09 µM)
[13]
  MIC: 4 µg/mL (≈ 12.4 µM)
[14]
  MIC: 4 µg/mL (≈ 12.4 µM)
[15]
  MIC: 2 µg/mL (≈ 6.19 µM)
[16]
  MIC, Acinetobacter baumanni: 16/32

## KNLRRIIRKIIHIIKKYG [AP00196]
[9]
  MIC, Clostridium ramosum: 32/64
[11]
  MIC, Fusobacterium nucleatum: 2/4
[16]
  MIC, Acinetobacter baumanni: 4/8
[3]
  MIC, Fusarium solani: 4/8
[17]
  MIC, Pseudomonas aeruginosa: 16/32
[18]
  MIC, Pseudomonas aeruginosa (clinical strain 1): 16/64
[19]
  MIC, Pseudomonas aeruginosa (clinical strain 6): 32/64
[20]
  MIC, Pseudomonas aeruginosa (clinical strain 8): 32/64
[21]
  MIC, Pseudomonas aeruginosa (clinical strain 9): 32/128
[22]
  MIC, Pseudomonas aeruginosa (clinical strain 12): 16/32
[23]
  MIC, Escherichia coli: 8/16
[24]
  MIC, Staphylococcus epidermidis: 8/16
[25]
  MIC, MSSA (clinical strain 1): 16/32
